pEC50: −log10 of the molar value. Where two headings read alike, the source gives them in different places.
Tests used:
M4 muscarinic receptor = target: T1, M4 muscarinic receptor (Homo sapiens, UniProt P08173); experiment: Functional mobilization of intracellular calcium (FLIPR) in M4-CHO cells; format: cell-based
T1 construct: expressed in transfected cells; host or cells: CHO (M4-CHO)
T1 sequence (P08173 1-479): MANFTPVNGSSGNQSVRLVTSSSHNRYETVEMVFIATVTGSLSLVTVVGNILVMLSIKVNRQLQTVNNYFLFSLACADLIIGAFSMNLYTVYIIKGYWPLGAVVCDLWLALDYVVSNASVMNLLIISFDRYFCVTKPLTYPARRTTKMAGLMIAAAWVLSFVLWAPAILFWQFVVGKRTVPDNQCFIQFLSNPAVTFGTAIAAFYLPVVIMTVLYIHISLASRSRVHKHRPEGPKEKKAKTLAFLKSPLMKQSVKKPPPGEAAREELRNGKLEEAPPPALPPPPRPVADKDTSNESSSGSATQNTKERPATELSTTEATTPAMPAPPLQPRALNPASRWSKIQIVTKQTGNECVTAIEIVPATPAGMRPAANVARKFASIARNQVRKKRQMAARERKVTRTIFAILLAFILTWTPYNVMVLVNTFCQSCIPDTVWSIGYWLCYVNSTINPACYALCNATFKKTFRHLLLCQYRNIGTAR
Outline: (§1)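 Measured via Fluo-3 fluorescence on a FLIPR, CHO cells with either muscarinic subtype received compound in 0.5% DMSO. Antagonism was assessed after 15 min pre-incubation followed by carbachol at each subtype's EC80; agonism from compound addition alone.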

M1 muscarinic receptor = target: T2, M1 muscarinic receptor (Homo sapiens, UniProt P11229); experiment: Functional mobilization of intracellular calcium (FLIPR) in M1-CHO cells; format: cell-based
T2 construct: expressed in transfected cells; host or cells: CHO (M1-CHO)
T2 sequence (P11229 1-460): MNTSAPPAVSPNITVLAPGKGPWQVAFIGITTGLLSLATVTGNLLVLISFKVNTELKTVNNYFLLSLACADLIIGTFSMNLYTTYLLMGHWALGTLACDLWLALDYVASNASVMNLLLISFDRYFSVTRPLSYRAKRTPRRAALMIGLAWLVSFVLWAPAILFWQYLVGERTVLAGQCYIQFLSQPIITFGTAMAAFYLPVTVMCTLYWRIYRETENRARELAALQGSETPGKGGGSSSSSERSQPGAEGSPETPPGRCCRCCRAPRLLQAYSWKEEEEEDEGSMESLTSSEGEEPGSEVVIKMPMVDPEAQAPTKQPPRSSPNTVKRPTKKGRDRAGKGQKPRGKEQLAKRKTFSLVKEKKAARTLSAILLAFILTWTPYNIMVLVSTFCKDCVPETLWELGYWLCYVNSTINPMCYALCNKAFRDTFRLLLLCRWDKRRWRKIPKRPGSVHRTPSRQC
Outline: as §1

[1] = Table 4, 100% efficacy is the maximum response obtained with the Carbachol control
[2] = Table 4, M4 receptor, calcium mobilization (FLIPR)
[3] = Table 4, M1 receptor, calcium mobilization (FLIPR)
[4] = 100% efficacy is the maximum response obtained with the Carbachol control, Table 5
[5] = M4 receptor, calcium mobilization
[6] = M4 receptor, calcium mobilization, read-out: M4 Efficacy
[7] = M1 receptor, calcium mobilization
[8] = M1 receptor, calcium mobilization, read-out: M1 Efficacy
[9] = M4-CHO cells, calcium mobilization (FLIPR)
[10] = M4-CHO cells, calcium mobilization (FLIPR), read-out: M4 Efficacy
[11] = M1-CHO cells, calcium mobilization (FLIPR)
[12] = M1-CHO cells, calcium mobilization (FLIPR), read-out: M1 Efficacy
[13] = Table 4, modulating M4 receptor
[14] = Table 4, modulating M1 receptor

SMILES	Emax (M4 muscarinic receptor; [1]) [%]	Emax (M1 muscarinic receptor; [1]) [%]	M4 Activity (M4 muscarinic receptor; [5])	Emax (M4 muscarinic receptor; [6]) [%]	M1 Activity (M1 muscarinic receptor; [7])	Emax (M1 muscarinic receptor; [8]) [%]	M4 Activity (M4 muscarinic receptor; [13])	M1 Activity (M1 muscarinic receptor; [14])	other results
CC(=O)N1CC2(CCN(C[C@H]3CCN(C(=O)OCC(F)F)C3)CC2)c2ccccc21 [compound 871]	25 to 100	25 to 100							M4 Activity (M4 muscarinic receptor; [2]): xx (activity was measured to be between 2.0 μM and 5.0 μM); M1 Activity (M1 muscarinic receptor; [3]): x (activity was measured to be greater than 5.0 μM)
CN(C)C(=O)N1CC2(CCN(C[C@@H]3CCN(c4cnccn4)C3)CC2)c2cc(F)ccc21 [compound 1036]									Emax (M4 muscarinic receptor; [4]): 25 to 100%; pEC50 (M4 muscarinic receptor; CHO cells expressing M4, calcium mobilization, Table 5): > 5.70; Emax (M1 muscarinic receptor; [4]): 25 to 100%; pEC50 (M1 muscarinic receptor; CHO cells expressing M1, calcium mobilization, Table 5): > 5.70
Cc1ccc2c(c1)C1(CCN(C3CC4CCC3C4)CC1)CN2 (stereo not drawn) [compound 350]			xxx (activity was measured to be less than 0.1 μM)	> 85	xxx (activity was measured to be less than 0.1 μM)	> 85			
O=C(C1CCC1)N1C2CCC1CC(N1CCC3(CC1)COc1ccc(F)cc13)C2 (stereo not drawn) [compound 134]			xx (activity was measured to be between 0.1 μM and 1.0 μM)	< 65	xxx (activity was measured to be less than 0.1 μM)	> 85			
CCOC(=O)N1CCC(N2CCC3(CC2)C[C@@H](NC(C)=O)c2ccccc23)CC1 [compound 430]									pEC50 (M4 muscarinic receptor; [9]): < 6.00; Emax (M4 muscarinic receptor; [10]): < 65%; pEC50 (M1 muscarinic receptor; [11]): 6.00 to 7.00; Emax (M1 muscarinic receptor; [12]): < 65%
Cc1cnc(C)c(N2CCC(N3CCC4(CC3)CN(C(=O)N(C)C)c3ccc(F)cc34)CC2)n1 [compound 659]	25 to 100	25 to 100					xxx (activity was measured to be less than 2.0 μM)	xxx (activity was measured to be less than 2.0 μM)	
Cc1ccc2c(c1)C1(CCN(C3CC4CCC3C4)CC1)CN2C(=O)c1cc(C)n(C)n1 (stereo not drawn) [compound 211]			x (activity was measured to be greater than 1.0 μM)	< 65	x (activity was measured to be greater than 1.0 μM)	65 to 85			
COCCOC(=O)N1CCCC(N2CCC3(CC2)CN(C(C)=O)c2ccc(F)cc23)CC1 (stereo not drawn) [compound 65]			x (activity was measured to be greater than 1.0 μM)	< 65	xx (activity was measured to be between 0.1 μM and 1.0 μM)	65 to 85			
CC(C)OC(=O)N1CC[C@@H](CN2CCC3(CC2)CN(C(=O)N(C)C)c2ccc(F)cc23)C1 [compound 558]	25 to 100	25 to 100					xxx (activity was measured to be less than 2.0 μM)	xxx (activity was measured to be less than 2.0 μM)	
CCOC(=O)N1CCC(N2CCC3(CC2)CN(C(C)=O)c2c(C4=CCCC4)cccc23)CC1 [compound 930]	< 25	< 25							M4 Activity (M4 muscarinic receptor; [2]): x (activity was measured to be greater than 5.0 μM); M1 Activity (M1 muscarinic receptor; [3]): x (activity was measured to be greater than 5.0 μM)
CCOC(=O)N1CCC(N2CCC3(CC2)CN(C(=O)N2CCCCC2)c2ccc(F)cc23)CC1 [compound 598]	25 to 100	25 to 100					xxx (activity was measured to be less than 2.0 μM)	xxx (activity was measured to be less than 2.0 μM)	
Cc1cc(C(=O)N2CC3(CCN(C4CC5CCC(C4)N5C(=O)O[C@H]4CCOC4)CC3)c3cc(F)ccc32)nn1C (stereo partly drawn) [compound 411]									pEC50 (M4 muscarinic receptor; [9]): 6.00 to 7.00; Emax (M4 muscarinic receptor; [10]): < 65%; pEC50 (M1 muscarinic receptor; [11]): > 7.00; Emax (M1 muscarinic receptor; [12]): < 65%
CN(C)C(=O)N1CC2(CCN(C3CCCN(C(=O)OCC(F)F)CC3)CC2)c2cc(F)ccc21 (stereo not drawn) [compound 920]	25 to 100	25 to 100							M4 Activity (M4 muscarinic receptor; [2]): xxx (activity was measured to be less than 2.0 μM); M1 Activity (M1 muscarinic receptor; [3]): xxx (activity was measured to be less than 2.0 μM)
CCC(=O)CCN1CC2(CCN(C[C@@H]3C[C@H]4C=C[C@H]3C4)CC2)c2cc(F)ccc21 [compound 12]			xx (activity was measured to be between 0.1 μM and 1.0 μM)	< 65	xxx (activity was measured to be less than 0.1 μM)	< 65			
CC#CCOC(=O)N1CCC(N2CCC3(CC2)CN(C(C)=O)c2ccccc23)CC1 [compound 672]	25 to 100	25 to 100					xxx (activity was measured to be less than 2.0 μM)	xxx (activity was measured to be less than 2.0 μM)	
COc1ccccc1C(=O)N1CCC(N2CCC3(CC2)CN(C(=O)N(C)C)c2ccc(F)cc23)CC1 [compound 446]	< 25	25 to 100					x (activity was measured to be greater than 5.0 μM)	x (activity was measured to be greater than 5.0 μM)	
CC(=O)N1CC2(CCN(C3CC4CCC(C3)N4C(=O)O[C@@H]3CCOC3)CC2)c2ccccc21 (stereo partly drawn) [compound 970]	25 to 100	25 to 100							M4 Activity (M4 muscarinic receptor; [2]): xxx (activity was measured to be less than 2.0 μM); M1 Activity (M1 muscarinic receptor; [3]): xxx (activity was measured to be less than 2.0 μM)
CC(C)C(=O)N[C@H]1CC2(CCN(C[C@H]3C[C@H]4CC[C@H]3C4)CC2)c2ccccc21 [compound 55]			xxx (activity was measured to be less than 0.1 μM)	65 to 85	xxx (activity was measured to be less than 0.1 μM)	> 85			
CC(=O)N1CC2(CCN(CC3CCCC3)CC2)c2cc(F)ccc21 [compound 187]			x (activity was measured to be greater than 1.0 μM)	65 to 85	xx (activity was measured to be between 0.1 μM and 1.0 μM)	65 to 85			
CC(=O)N1CC2(CCN(C3CCC3)CC2)c2cc(F)ccc21 [compound 916]	< 25	< 25							M4 Activity (M4 muscarinic receptor; [2]): x (activity was measured to be greater than 5.0 μM); M1 Activity (M1 muscarinic receptor; [3]): x (activity was measured to be greater than 5.0 μM)
CC(=O)N[C@H]1CC2(CCN(C3CC4CCC(C4)C3)CC2)c2ccccc21 (stereo partly drawn) [compound 337]			x (activity was measured to be greater than 1.0 μM)	< 65	x (activity was measured to be greater than 1.0 μM)	< 65			
CC(=O)N[C@H]1CC2(CCN(C3CCN(c4cccc(F)n4)CC3)CC2)c2ccccc21 [compound 708]	25 to 100	25 to 100					xxx (activity was measured to be less than 2.0 μM)	xxx (activity was measured to be less than 2.0 μM)	
C1=CC2CC1CC2CN1CCC2(CCCc3ccccc32)CC1 (stereo not drawn) [compound 449]	25 to 100	25 to 100					xxx (activity was measured to be less than 2.0 μM)	xx (activity was measured to be between 2.0 μM and 5.0 μM)	
CC(=O)N1CC2(CCN(C3CCN(C(=O)OC4CCOC4)CC3)CC2)c2ccccc21 (stereo not drawn) [compound 932]	< 25	25 to 100							M4 Activity (M4 muscarinic receptor; [2]): x (activity was measured to be greater than 5.0 μM); M1 Activity (M1 muscarinic receptor; [3]): x (activity was measured to be greater than 5.0 μM)
CCOC(=O)N1CCC(N2CCC3(C[C@H](NC(C)=O)c4cc(F)ccc43)C2)CC1 (stereo partly drawn) [compound 538]	< 25	25 to 100					x (activity was measured to be greater than 5.0 μM)	xx (activity was measured to be between 2.0 μM and 5.0 μM)	
CCOC(=O)N1CCC(N2CCC3(CC2)CN(C(C)=O)c2c(-c4cccc(F)c4)cccc23)CC1 [compound 499]	< 25	25 to 100					x (activity was measured to be greater than 5.0 μM)	x (activity was measured to be greater than 5.0 μM)	
COC(=O)N1C2CCC1CC(N1CCC3(CC1)CN(C(=O)c1cc(C)n(C)n1)c1ccc(F)cc13)C2 (stereo not drawn) [compound 44]			xx (activity was measured to be between 0.1 μM and 1.0 μM)	> 85	xxx (activity was measured to be less than 0.1 μM)	65 to 85			

Source: patent US7786141B2 (Vertex Pharmaceuticals Incorporated, priority 2004, dated 2010)
